Source: patent publication US9079866B2, “Flap modulators” (JANSSEN PHARMACEUTICA NV, priority 2013, dated 2015)
Structures can show the parent of a compound that is named as a salt. Where two headings read alike, the source gives them in different places.

Columns and labels:
human FLAP = human FLAP (Homo sapiens (Human), UniProt P20292); assay: FLAP binding assay (HTRF format)
Procedure, shortened: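 Reported data take the mean of two different plates carrying duplicate samples and use the HTRF ratio as the measured signal.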

[1] = test system: leukotriene pathway in human whole blood (LTB4 levels); assay: Human whole blood assay (A23187-stimulated LTB4); assay type: cell-based; details: Homo sapiens, read-out: LTB4 IC50 1:1
Procedure, shortened: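 Heparinised human whole blood diluted 1:1 in RPMI, pre-incubated 15 min at 37° Celsius with compound, then stimulated with A23187 (7 μg/mL) for 30 min at 37° Celsius. Plasma LTB4 measured by immunoassay kit; IC50 from 4-parameter fit; single replicate per plate, at least one healthy donor.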

[2] = human FLAP wild type, HTRF format, average of two plates, duplicates
[3] = human whole blood diluted 1:1 in RPMI, A23187-stimulated LTB4
[4] = human whole blood diluted 1:1, A23187-stimulated

Sequence of human FLAP (P20292 whole entry): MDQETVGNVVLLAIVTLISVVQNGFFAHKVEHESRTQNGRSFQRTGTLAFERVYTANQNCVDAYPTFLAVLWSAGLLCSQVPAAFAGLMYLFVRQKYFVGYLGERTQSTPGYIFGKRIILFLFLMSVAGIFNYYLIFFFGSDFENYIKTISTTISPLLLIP

Row | Ki (human FLAP; [2]) | IC50 [1, 3] | Ki (human FLAP; wild type FLAP, HTRF format) | IC50 [1, 4] | SMILES | Ki (human FLAP; read-out: FLAP Binding wild type HTRF Ki)
1 | 3 nM | 60 nM |  |  | O=S(=O)(c1ccccc1-c1ccc(-c2cnc3[nH]ccc3c2)c(F)c1)C1CC1 [Example 365, 5-[2′-(Cyclopropylsulfonyl)-3-fluorobiphenyl-4-yl]-1H-pyrrolo[2,3-b]pyridine] | 
2 | 118 nM | 638 nM |  |  | Nc1cnc(-c2ccc(-c3ccccc3CS(=O)(=O)N3CC(O)C3)cc2F)cn1 [Example 222, 1-({[4′-(5-Aminopyrazin-2-yl)-3′-fluorobiphenyl-2-yl]methyl}sulfonyl)azetidin-3-ol formic acid salt] | 
3 |  |  | 46.1 nM | 340 nM | Cc1nc(N)cc(Oc2ccccc2-c2ccc(-c3cnc(N)nc3)c(F)c2)n1 [Example 622, 5-{2′-[(6-Amino-2-methylpyrimidin-4-yl)oxy]-3-fluorobiphenyl-4-yl}pyrimidin-2-amine] | 
4 |  |  | 14.7 nM | 51.3 nM | NC(=O)C1(S(=O)(=O)c2ccccc2-c2ccc(-c3cnc(N)cn3)c(F)c2)CCCC1 [Example 731, 1-{[4′-(5-Aminopyrazin-2-yl)-3′-fluorobiphenyl-2-yl]sulfonyl}cyclopentanecarboxamide] | 
5 |  |  | 81 nM | 984 nM | Nc1ncc(-c2ccc(-c3ccc(C(F)(F)F)cc3Oc3ccnc(N)n3)cn2)cn1 [Example 565, 4-{2-[6-(2-Aminopyrimidin-5-yl)pyridin-3-yl]-5-(trifluoromethyl)phenoxy}pyrimidin-2-amine] | 
6 |  |  | 130 nM | 939 nM | C[C@@H](NC(=O)c1cc(C(F)(F)F)ccc1-c1ccc(-c2cnc(N)nc2)c(F)c1)C(F)(F)F [Example 789, 2-[4-(2-Aminopyrimidin-5-yl)-3-fluoro-phenyl]-5-(trifluoromethyl)-N-[(1R)-2,2,2-trifluoro-1-methyl-ethyl]benzamide] | 
7 |  |  | 63 nM | 300 nM | C[C@H](CO)NS(=O)(=O)c1ccccc1-c1ccc(-c2nnc(N)s2)c(F)c1 [Example 439, (R)-4′-(5-Amino-1,3,4-thiadiazol-2-yl)-3′-fluoro-N-(1-hydroxypropan-2-yl)-[1,1′-biphenyl]-2-sulfonamide] | 
8 | 3 nM | 150 nM |  |  | O=C1NCC[C@@H]1NS(=O)(=O)c1ccccc1-c1ccc(-c2cnc3[nH]ccc3c2)c(F)c1 [Example 364, 3′-Fluoro-N-[(3S)-2-oxopyrrolidin-3-yl]-4′-(1H-pyrrolo[2,3-b]pyridin-5-yl)biphenyl-2-sulfonamide] | 
9 | 4 nM | 534 nM |  |  | Nc1cnc(-c2ccc(-c3ccccc3S(=O)(=O)N3CCC(n4cn[nH]c4=O)CC3)cc2F)cn1 [Example 129, 4-(1-{[4′-(5-Aminopyrazin-2-yl)-3′-fluorobiphenyl-2-yl]sulfonyl}piperidin-4-yl)-2,4-dihydro-3H-1,2,4-triazol-3-one] | 
10 |  |  | 6 nM | 32 nM | N#Cc1cccnc1Oc1ccccc1-c1ccc(-c2cnc(N)cn2)c(F)c1 [Example 532, 2-{[4′-(5-Aminopyrazin-2-yl)-3′-fluorobiphenyl-2-yl]oxy}pyridine-3-carbonitrile] | 
11 |  |  | 4.7 nM | 45.6 nM | Nc1cnc(-c2ccc(-c3ccc(C(F)(F)F)cc3-c3cnc(N)nc3)cc2F)cn1 [Example 853, 5-[4′-(5-Aminopyrazin-2-yl)-3′-fluoro-4-(trifluoromethyl)biphenyl-2-yl]pyrimidin-2-amine] | 
12 | 1 nM | 9 nM |  |  | Nc1cnc(-c2ccc(-c3ccccc3Sc3ncncc3N)cc2F)cn1 [Example 217, 4-{[4′-(5-Aminopyrazin-2-yl)-3′-fluorobiphenyl-2-yl]sulfanyl}pyrimidin-5-amine hydrochloride] | 
13 | 1 nM | 17 nM |  |  | Nc1cnc(-c2ccc(-c3ccccc3S(=O)(=O)N[C@H]3CCCC[C@@H]3O)cc2F)cn1 (racemic) [Example 120, Racemic-(trans)-4′-(5-Aminopyrazin-2-yl)-3′-fluoro-N-(2-hydroxycyclohexyl)biphenyl-2-sulfonamide] | 
14 |  |  | 69.9 nM | 377 nM | Nc1cnc(-c2ccc(-c3ccccc3C(=O)N3CCOC(C(F)(F)F)C3)cc2F)cn1 (racemic) [Example 754, racemic 5-(3-Fluoro-2′-{[2-(trifluoromethyl)morpholin-4-yl]carbonyl}biphenyl-4-yl)pyrazin-2-amine] | 
15 |  |  | 348 nM | 393 nM | Nc1ncc(-c2ccc(-c3ccc(C(F)(F)F)cc3C(=O)N3CCOCC3)cc2F)cn1 [Example 522, 5-[3-Fluoro-2′-(morpholin-4-ylcarbonyl)-4′-(trifluoromethyl)biphenyl-4-yl]pyrimidin-2-amine] | 
16 |  |  | 4 nM | 509 nM | CC(C)CS(=O)(=O)Nc1ccccc1-c1ccc(-c2cnc3[nH]ccc3n2)c(F)c1 [Example 495, N-[3′-Fluoro-4′-(5H-pyrrolo[2,3-b]pyrazin-2-yl)biphenyl-2-yl]-2-methylpropane-1-sulfonamide] | 
17 |  |  | 5.4 nM | 268 nM | NC(=O)C1CCN(S(=O)(=O)c2ccccc2-c2ccc(-c3cnc(N)nc3)c(F)c2)CC1 [Example 709, 1-((4′-(2-Aminopyrimidin-5-yl)-3′-fluoro-[1,1′-biphenyl]-2-yl)sulfonyl)piperidine-4-carboxamide] | 
18 | 2 nM | 12 nM |  |  | Nc1cnc(-c2ccc(-c3ccccc3Sc3cc(N)ncn3)cc2F)cn1 [Example 215, 6-{[4′-(5-Aminopyrazin-2-yl)-3′-fluorobiphenyl-2-yl]sulfanyl}pyrimidin-4-amine hydrochloride] | 
19 | 2 nM | 23 nM |  |  | Nc1cnc(-c2ccc(-c3ccccc3S(=O)(=O)N3CCCC(CCO)C3)cc2F)cn1 (racemic) [Example 71, racemic-2-(1-{[4′-(5-Aminopyrazin-2-yl)-3′-fluorobiphenyl-2-yl]sulfonyl}piperidin-3-yl)ethanol] | 
20 |  |  | 62.7 nM | 842 nM | Nc1cnc(-c2ccc(-c3cccnc3O[C@H]3CC[C@H](N)CC3)cc2F)cn1 [Example 652, 5-(4-{2-[(trans-4-Aminocyclohexyl)oxy]pyridin-3-yl}-2-fluorophenyl)pyrazin-2-amine formic acid salt] | 
21 |  |  | 97 nM | 1650 nM | Nc1cnc(-c2ccc(-c3cccnc3OCC3CC3)cc2F)cn1 [Example 488, 5-{4-[2-(Cyclopropylmethoxy)pyridin-3-yl]-2-fluorophenyl}pyrazin-2-amine] | 
22 |  |  | 145 nM | 2520 nM | Nc1cnc(-c2ccc(-c3ccccc3C(F)(F)F)cc2F)cn1 [Example 472, 5-[3-Fluoro-2′-(trifluoromethyl)biphenyl-4-yl]pyrazin-2-amine] | 
23 |  |  | 27.4 nM | 117 nM | Nc1cnc(-c2ccc(-c3ccccc3Oc3ccnc(C(F)(F)F)c3)cc2F)cn1 [Example 610, 5-(3-Fluoro-2′-{[2-(trifluoromethyl)pyridin-4-yl]oxy}biphenyl-4-yl)pyrazin-2-amine] | 
24 | 1 nM | 114 nM |  |  | CC(C)(C)OC(=O)NCCNS(=O)(=O)c1ccccc1-c1ccc(-c2cnc(N)cn2)c(F)c1 [Example 151, tert-Butyl [2-({[4′-(5-aminopyrazin-2-yl)-3′-fluorobiphenyl-2-yl]sulfonyl}amino)ethyl]carbamate] | 

Row | SMILES | Ki (human FLAP; [2]) | IC50 [1, 3] | Ki (human FLAP; wild type FLAP, HTRF format) | IC50 [1, 4] | Ki (human FLAP; read-out: FLAP Binding wild type HTRF Ki)
25 | CC(C)(O)CNS(=O)(=O)c1ccccc1-c1ccc(-c2cnc(N)nc2)c(F)c1 [Example 272, 4′-(2-Aminopyrimidin-5-yl)-3′-fluoro-N-(2-hydroxy-2-methylpropyl)biphenyl-2-sulfonamide trifluoroacetic acid salt] |  | 125 nM |  |  | 32 nM
